# Results reported in patent publication US6355799B1, “Substituted benzene compounds, process for their preparation, and herbicidal and defoliant compositions containing them” (ISK Americas Incorporated, priority 1997, dated 2002).
# Legend:
# Assay type in all cases: in vivo
# [1] = test system: redroot pigweed (Amaranthus retroflexus, AMARE); assay: Pre-emerge test, greenhouse herbicide activity screening; conditions: rating scale 0-100, 14 days after application
# Procedure, shortened: (§1)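 Rating: 0–100 visual injury, 14 DAA. Application: acetone, 187 l/ha, 15–1000 g ai/ha, flat-fan track sprayer with nozzle 40–45 cm above soil or canopy. Post-emerge runs used 0.25% v/v surfactant on 2–3 leaf plants.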
# [2] = test system: barnyardgrass (Echinochloa crus-galli, ECHCG); assay: as above; conditions: rating scale 0-100, 14 days after application
# Procedure, shortened: as §1
# [3] = test system: common ragweed (Ambrosia artemisizfolia L., AMBEL); assay: as above; conditions: rating scale 0-100, 14 days after application
# Procedure, shortened: as §1
# [4] = test system: green foxtail (Setaria viridis, SETVI); assay: as above; conditions: rating scale 0-100, 14 days after application
# Procedure, shortened: as §1
# [5] = test system: ivyleaf morningglory (Ipomoea hederacea, IPOHE); assay: as above; conditions: rating scale 0-100, 14 days after application
# Procedure, shortened: as §1
# [6] = test system: johnsongrass (Sorghum halepense, SORHA); assay: as above; conditions: rating scale 0-100, 14 days after application
# Procedure, shortened: as §1
# [7] = test system: lambsquarters (Chenopodium album, CHEAL); assay: as above; conditions: rating scale 0-100, 14 days after application
# Procedure, shortened: as §1
# [8] = test system: large crabgrass (Digitaria sanguinalis, DIGSA); assay: as above; conditions: rating scale 0-100, 14 days after application
# Procedure, shortened: as §1
# [9] = test system: sicklepod (Cassia obtusifolia, CASOB); assay: as above; conditions: rating scale 0-100, 14 days after application
# Procedure, shortened: as §1
# [10] = test system: velvetleaf (Abutilon theophrasti, ABUTH); assay: as above; conditions: rating scale 0-100, 14 days after application
# Procedure, shortened: as §1
# [11] = test system: field corn (Zea mays L., var. Dekalb 535, CORN); assay: Pre-emerge test, crop safety; conditions: rating scale 0-100, 14 days after application
# Procedure, shortened: (§2)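 Sandy loam pots; pre-emerge: sown 1 d pre-spray, surface-watered after, then bottom-watered. Post-emerge: sown 8–21 d before, 2–3 leaf stage, + 0.25% v/v NIS, bottom-watered. Acetone, 187 l/ha track spray, 15–1000 g ai/ha. 0–100 injury score, day 14.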
# [12] = test system: upland rice (Oryza sp., var. Tebonnet, RICE); assay: Pre-emerge test, crop safety; conditions: rating scale 0-100, 14 days after application
# Procedure, shortened: as §2
# [13] = test system: barnyardgrass (Echinochloa crus-galli, ECHCG); assay: Post-emerge test, greenhouse herbicide activity screening; conditions: rating scale 0-100 (0 no damage, 100 complete death), 14 days after application
# Procedure, shortened: (§3)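 Plants grown in 10 cm pots of sandy loam mix received acetone-dissolved compounds through a moving flat-fan nozzle. Doses ranged from 15 to 1000 g ai/ha. Pre-emerge pots were seeded one day earlier, post-emerge pots 8–21 days earlier. Fourteen days on, each pot was graded 0–100 for damage.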
# [14] = test system: common ragweed (Ambrosia artemisizfolia L., AMBEL); assay: as above; conditions: rating scale 0-100 (0 no damage, 100 complete death), 14 days after application
# Procedure, shortened: as §3
# [15] = test system: green foxtail (Setaria viridis, SETVI); assay: as above; conditions: rating scale 0-100 (0 no damage, 100 complete death), 14 days after application
# Procedure, shortened: as §3
# [16] = test system: ivyleaf morningglory (Ipomoea hederacea, IPOHE); assay: as above; conditions: rating scale 0-100 (0 no damage, 100 complete death), 14 days after application
# Procedure, shortened: as §3
# [17] = test system: lambsquarters (Chenopodium album, CHEAL); assay: as above; conditions: rating scale 0-100 (0 no damage, 100 complete death), 14 days after application
# Procedure, shortened: as §3
# [18] = test system: large crabgrass (Digitaria sanguinalis, DIGSA); assay: as above; conditions: rating scale 0-100 (0 no damage, 100 complete death), 14 days after application
# Procedure, shortened: as §3
# [19] = test system: redroot pigweed (Amaranthus retroflexus, AMARE); assay: as above; conditions: rating scale 0-100 (0 no damage, 100 complete death), 14 days after application
# Procedure, shortened: as §3
# [20] = test system: sicklepod (Cassia obtusifolia, CASOB); assay: as above; conditions: rating scale 0-100 (0 no damage, 100 complete death), 14 days after application
# Procedure, shortened: as §3
# [21] = test system: velvetleaf (Abutilon theophrasti, ABUTH); assay: as above; conditions: rating scale 0-100 (0 no damage, 100 complete death), 14 days after application
# Procedure, shortened: as §3
# [22] = test system: field corn (Zea mays L., var. Dekalb 535, CORN); assay: Post-emerge test, crop safety; conditions: rating scale 0-100 (0 no damage, 100 complete death), 14 days after application
# Procedure, shortened: as §3
# [23] = test system: upland rice (Oryza sp., var. Tebonnet, RICE); assay: Post-emerge test, crop safety; conditions: rating scale 0-100 (0 no damage, 100 complete death), 14 days after application
# Procedure, shortened: as §3
structure (smiles),measurement,setting,value
"CCCCOC(=O)C(Cl)Cc1c(OC)c(Cl)cc(F)c1-n1c(=O)cc(C(F)(F)F)n(C)c1=O (single isomer, unassigned) [14-8]","Pre-emerge herbicidal activity, phytotoxicity rating AMARE",[1]; 63 g ai/ha,100
same,"Pre-emerge herbicidal activity, phytotoxicity rating AMARE",[1]; 250 g ai/ha,99
same,"Pre-emerge herbicidal activity, phytotoxicity rating ECHCG",[2]; 63 g ai/ha,0
same,"Pre-emerge herbicidal activity, phytotoxicity rating ECHCG",[2]; 250 g ai/ha,20
same,"Pre-emerge herbicidal activity, phytotoxicity rating AMBEL",[3]; 63 g ai/ha,0
same,"Pre-emerge herbicidal activity, phytotoxicity rating AMBEL",[3]; 250 g ai/ha,40
same,"Pre-emerge herbicidal activity, phytotoxicity rating SETVI",[4]; 63 g ai/ha,0
same,"Pre-emerge herbicidal activity, phytotoxicity rating SETVI",[4]; 250 g ai/ha,0
same,"Pre-emerge herbicidal activity, phytotoxicity rating IPOHE",[5]; 63 g ai/ha,0
same,"Pre-emerge herbicidal activity, phytotoxicity rating IPOHE",[5]; 250 g ai/ha,0
same,"Pre-emerge herbicidal activity, phytotoxicity rating SORHA",[6]; 63 g ai/ha,0
same,"Pre-emerge herbicidal activity, phytotoxicity rating SORHA",[6]; 250 g ai/ha,0
same,"Pre-emerge herbicidal activity, phytotoxicity rating CHEAL",[7]; 63 g ai/ha,70
same,"Pre-emerge herbicidal activity, phytotoxicity rating CHEAL",[7]; 250 g ai/ha,95
same,"Pre-emerge herbicidal activity, phytotoxicity rating DIGSA",[8]; 63 g ai/ha,40
same,"Pre-emerge herbicidal activity, phytotoxicity rating DIGSA",[8]; 250 g ai/ha,100
same,"Pre-emerge herbicidal activity, phytotoxicity rating CASOB",[9]; 63 g ai/ha,0
same,"Pre-emerge herbicidal activity, phytotoxicity rating CASOB",[9]; 250 g ai/ha,0
same,"Pre-emerge herbicidal activity, phytotoxicity rating ABUTH",[10]; 63 g ai/ha,0
same,"Pre-emerge herbicidal activity, phytotoxicity rating ABUTH",[10]; 250 g ai/ha,40
same,"Pre-emerge phytotoxicity rating, crop damage CORN",[11]; 63 g ai/ha,0
same,"Pre-emerge phytotoxicity rating, crop damage CORN",[11]; 250 g ai/ha,0
same,"Pre-emerge phytotoxicity rating, crop damage RICE",[12]; 63 g ai/ha,0
same,"Pre-emerge phytotoxicity rating, crop damage RICE",[12]; 250 g ai/ha,0
same,"Post-emerge Herbicidal Activity, phytotoxicity rating ECHCG",[13]; Rate 63 g ai/ha,95
same,"Post-emerge Herbicidal Activity, phytotoxicity rating ECHCG",[13]; Rate 250 g ai/ha,99
same,"Post-emerge Herbicidal Activity, phytotoxicity rating AMBEL",[14]; Rate 63 g ai/ha,10
same,"Post-emerge Herbicidal Activity, phytotoxicity rating AMBEL",[14]; Rate 250 g ai/ha,50
same,"Post-emerge Herbicidal Activity, phytotoxicity rating SETVI",[15]; Rate 63 g ai/ha,10
same,"Post-emerge Herbicidal Activity, phytotoxicity rating SETVI",[15]; Rate 250 g ai/ha,40
same,"Post-emerge Herbicidal Activity, phytotoxicity rating IPOHE",[16]; Rate 63 g ai/ha,30
same,"Post-emerge Herbicidal Activity, phytotoxicity rating IPOHE",[16]; Rate 250 g ai/ha,95
same,"Post-emerge Herbicidal Activity, phytotoxicity rating CHEAL",[17]; Rate 63 g ai/ha,70
same,"Post-emerge Herbicidal Activity, phytotoxicity rating CHEAL",[17]; Rate 250 g ai/ha,99
same,"Post-emerge Herbicidal Activity, phytotoxicity rating DIGSA",[18]; Rate 63 g ai/ha,40
same,"Post-emerge Herbicidal Activity, phytotoxicity rating DIGSA",[18]; Rate 250 g ai/ha,85
same,"Post-emerge Herbicidal Activity, phytotoxicity rating AMARE",[19]; Rate 63 g ai/ha,90
same,"Post-emerge Herbicidal Activity, phytotoxicity rating AMARE",[19]; Rate 250 g ai/ha,100
same,"Post-emerge Herbicidal Activity, phytotoxicity rating CASOB",[20]; Rate 63 g ai/ha,30
same,"Post-emerge Herbicidal Activity, phytotoxicity rating CASOB",[20]; Rate 250 g ai/ha,80
same,"Post-emerge Herbicidal Activity, phytotoxicity rating ABUTH",[21]; Rate 63 g ai/ha,60
same,"Post-emerge Herbicidal Activity, phytotoxicity rating ABUTH",[21]; Rate 250 g ai/ha,100
same,Post-emerge phytotoxicity rating CORN (crop damage),[22]; Rate 63 g ai/ha,40
same,Post-emerge phytotoxicity rating CORN (crop damage),[22]; Rate 250 g ai/ha,80
same,Post-emerge phytotoxicity rating RICE (crop damage),[23]; Rate 63 g ai/ha,5
same,Post-emerge phytotoxicity rating RICE (crop damage),[23]; Rate 250 g ai/ha,30
